How the values were obtained:
KAI3 = test: drug sensitivity score (viability inhibition); higher = more sensitive; conditions: 72 h; IL2 2.5 ng/ml
Procedure: (§1)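 NK-cell leukemia/lymphoma cell lines (3,000 cells/well) were cultured with IL2 2.5 ng/ml in 384-well drug plates (5-8 concentrations over a 10,000-fold range) for 72 h at 37 C; viability was read with CellTiter-Glo. DSS is a normalised area under the dose-response curve; the experiment was repeated twice.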

KHYG-1 = test: as above; conditions: 72 h; IL2 2.5 ng/ml
Procedure: as §1

NK-92 = test: as above; conditions: 72 h; IL2 2.5 ng/ml
Procedure: as §1

NK-YS = test: as above; conditions: 72 h; IL2 2.5 ng/ml
Procedure: as §1

NKL = test: as above; conditions: 72 h; IL2 2.5 ng/ml
Procedure: as §1

SNK6 = test: as above; conditions: 72 h; IL2 2.5 ng/ml
Procedure: as §1

YT = test: as above; conditions: 72 h; IL2 2.5 ng/ml
Procedure: as §1

HEK293-SIE STAT3 WT = test: drug sensitivity score (inhibition of STAT3 luciferase reporter); higher = stronger inhibition; conditions: 6 h; STAT3: WT; IL6 100 ng/ml
Procedure: (§2)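 HEK293 cells with a STAT3-inducible (SIE) luciferase reporter, stably expressing WT STAT3 (IL6 100 ng/ml) or Y640F STAT3 (no IL6), were incubated 6 h with drugs in 384-well plates (5-8 concentrations over a 10,000-fold range); luciferase was read with ONE-Glo. DSS is a normalised area under the dose-response curve; values are the mean of two experiments.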

HEK293-SIE STAT3 Y640F = test: as above; conditions: 6 h; IL6 0 ng/ml
Procedure: as §2

Row | SMILES | drug sensitivity score (KAI3) [DSS] | drug sensitivity score (KHYG-1) [DSS] | drug sensitivity score (NK-92) [DSS] | drug sensitivity score (NK-YS) [DSS] | drug sensitivity score (NKL) [DSS] | drug sensitivity score (SNK6) [DSS] | drug sensitivity score (YT) [DSS] | drug sensitivity score (HEK293-SIE STAT3 WT) [DSS] | drug sensitivity score (HEK293-SIE STAT3 Y640F) [DSS]
1 | NC1(c2ccc(-c3nc4ccn5c(=O)[nH]nc5c4cc3-c3ccccc3)cc2)CCC1 [MK-2206] | 6.43 | 4.1 | 6.29 | 5 | 4.44 | 2.89 | 2.45 | 5.85 | 0
2 | CC(C)(C)c1cnc(CSc2cnc(NC(=O)C3CCNCC3)s2)o1 [SNS-032] | 21.1 | 20.5 | 19.2 | 30.3 | 29.4 | 10.5 | 26.1 | 21.8 | 18.9
3 | CC1(C)CCC(c2ccc(Cl)cc2)=C(CN2CCN(c3ccc(C(=O)NS(=O)(=O)c4ccc(N[C@H](CCN5CCOCC5)CSc5ccccc5)c(S(=O)(=O)C(F)(F)F)c4)cc3)CC2)C1 [Navitoclax] | 39.8 | 25.9 | 14.2 | 27.6 | 22.4 | 39.1 | 23.3 | 0 | 0.5
4 | Cc1c2oc3c(C)ccc(C(=O)N[C@@H]4C(=O)N[C@H](C(C)C)C(=O)N5CCC[C@H]5C(=O)N(C)CC(=O)N(C)[C@@H](C(C)C)C(=O)O[C@@H]4C)c3nc-2c(C(=O)N[C@@H]2C(=O)N[C@H](C(C)C)C(=O)N3CCC[C@H]3C(=O)N(C)CC(=O)N(C)[C@@H](C(C)C)C(=O)O[C@@H]2C)c(N)c1=O [Dactinomycin] | 23.8 | 29.3 | 16.5 | 38.2 | 36.5 | 32.2 | 35 | 18.9 | 18.4
5 | C[C@]12C=CC(=O)C=C1CC[C@@H]1[C@@H]2[C@@H](O)C[C@@]2(C)[C@H]1CC[C@]2(O)C(=O)CO [Prednisolone] | 0 | 6.65 | 0 | 1.37 | 11 | 2.12 | 5.05 | 0 | 0
6 | COc1cc(Nc2ncc(F)c(Nc3ccc4c(n3)NC(=O)C(C)(C)O4)n2)cc(OC)c1OC [Tamatinib] | 10.5 | 8.19 | 5.27 | 2.57 | 7.75 | 6.98 | 2.87 | 8.6 | 0
7 | CS(=O)(=O)N1CCN(Cc2cc3nc(-c4cccc5[nH]ncc45)nc(N4CCOCC4)c3s2)CC1 [Pictilisib] | 2.33 | 3.56 | 7.68 | 6.48 | 6.67 | 1.94 | 5.04 | 4.5 | 5
8 | CN1CC[C@H](c2c(O)cc(O)c3c(=O)cc(-c4ccccc4Cl)oc23)[C@H](O)C1 [Alvocidib] | 24.1 | 21.8 | 22.6 | 22.5 | 21.4 | 13.2 | 23 | 29.5 | 26.5
9 | C[C@@H]1CCN(C(=O)CC#N)C[C@@H]1N(C)c1ncnc2[nH]ccc12 [Tofacitinib] | 17.4 | 23.4 | 13.2 | 12.3 | 19.8 | 15.5 | 8.43 | 26 | 9.05
10 | Cc1cc(Nc2nc(N[C@@H](C)c3ncc(F)cn3)ncc2Cl)[nH]n1 [AZD1480] | 17.4 | 18.3 | 7.65 | 10.7 | 13.7 | 12.1 | 6.65 | 17.9 | 8.77
11 | CN1CCN(CCOc2cc(OC3CCOCC3)c3c(Nc4c(Cl)ccc5c4OCO5)ncnc3c2)CC1 [Saracatinib] | 2.15 | 2.88 | 3.28 | 2.03 | 1.25 | 0.135 | 2.46 | 0 | 1.9
12 | CC1(C)CCC(CN2CCN(c3ccc(C(=O)NS(=O)(=O)c4ccc(NCC5CCOCC5)c([N+](=O)[O-])c4)c(Oc4cnc5[nH]ccc5c4)c3)CC2)=C(c2ccc(Cl)cc2)C1 [Venetoclax] | 29.2 | 9.65 | 3.59 | 10.3 | 11.9 | 24.9 | 11.6 | 0.9 | 1.5
13 | CNC(=O)c1cc(Oc2ccc(NC(=O)Nc3ccc(Cl)c(C(F)(F)F)c3)cc2)ccn1 [Sorafenib] | 0 | 0.013 | 0.365 | 0.00415 | 0 | 4.36 | 0 | 2.1 | 1.6
14 | N#CC[C@H](C1CCCC1)n1cc(-c2ncnc3[nH]ccc23)cn1 [Ruxolitinib] | 27.5 | 30.5 | 21.8 | 19.5 | 26.9 | 22.2 | 15.8 | 34.1 | 13.2
15 | COc1ncc(-c2ccc3nccc(-c4ccnnc4)c3c2)cc1NS(=O)(=O)c1ccc(F)cc1F [Omipalisib] | 6.45 | 9.27 | 11.6 | 12.1 | 11.3 | 5.15 | 10.9 | 5.9 | 8.15
16 | N#CCNC(=O)c1ccc(-c2ccnc(Nc3ccc(N4CCOCC4)cc3)n2)cc1 [Momelotinib] | 13.9 | 18.9 | 10.1 | 10.8 | 15.9 | 8.25 | 8.12 | 24.2 | 12.4
17 | FC(F)c1nc2ccccc2n1-c1nc(N2CCOCC2)nc(N2CCOCC2)n1 [ZSTK474] | 5.42 | 2.23 | 12.8 | 9.54 | 9.94 | 7.75 | 7.9 | 2.77 | 4.7
